Data published in a melting point compilation (Tetko et al.; mined from patent text by program, amines drawn as free bases though some values may be those of a salt).

Row | Structure (SMILES) | melting point [°C]
1 | CC(=O)N[C@@H](c1ccccc1)[C@@H](O)C(=O)OC(C)C | 104 to 106
2 | CSc1cc(Oc2cccc(C(F)(F)F)c2)nc(C(=O)O)c1 | 54 to 57
3 | CCN(CC)Cc1nc(-c2ncn3c2[C@@H]2CCCN2C(=O)c2c(Cl)cccc2-3)no1 | 151 to 153
4 | COc1cc(C=CC(=O)c2ccc(C3CCCCC3)cc2)cc(OC)c1 | 75.5 to 76.2
5 | O=c1ccn([C@@H]2C[C@H](O)[C@@H](O)[C@H]2O)cc1 (racemic) | 186 to 188
6 | O=C(O)CCCc1ccc(C(NS(=O)(=O)c2ccc(Cl)cc2)C2CCCCC2)cc1 (single isomer, unassigned; (+)) | 165 to 166
7 | N=C(Nc1ccc2c(c1)C1CCCN1CC2)c1cccs1 (centres undefined) | 193 to 196
8 | O=C(c1ccccc1)C(Cl)(Cl)C1CCCCC1 | 92.5 to 94
9 | ClC(Cl)(Cl)SNc1nc(C(Cl)(Cl)Cl)ns1 | 180
10 | Cc1ncoc1C(=O)c1ccoc1 | 82 to 83.5
11 | Cc1nc(NC(=O)c2nnn(Cc3ccc(Cl)c(Cl)c3)c2C)sc1C(=O)O | 263
12 | C=CCn1cc(C(=O)OCC)c(=O)c2cc(C(=O)OC)ccc21 | 156 to 163
13 | COCCc1c[nH]c(=O)[nH]c1=O | 232 to 234
14 | CN1C=CC2=C(C=CCC2)CC1=O | 81 to 82
15 | CC(C)c1ccc2c(c1)c(SCC1CC1)c(CC(C)(C)C(N)=O)n2Cc1ccc(Cl)cc1 | 137 to 138
16 | O=C(CCl)N1CCSC1COc1ccccc1O (centres undefined) | 89 to 91
17 | COC(=O)C1Cc2sc3c(c2C1)C(c1ccccc1Cl)=NCC(=O)N3 (centres undefined) | 178 to 181
18 | Nc1cc(Br)nc(Cl)c1OC(F)F | 138 to 140
19 | O=C(NCC12CC3CC(CC(C3)C1)C2)c1cc(NCCNCC(O)c2ccccc2)ccc1Cl (centres undefined) | 63 to 64
20 | CCCC12CCC3C4CCC(=O)C=C4CCC3C1CCC2(O)CC (centres undefined) | 93 to 95

Row | Structure (SMILES) | melting point [°C]
21 | O=C1C2CCCCC2C(=O)N1c1cc(C(F)(F)F)cc(C(F)(F)F)c1 (centres undefined) | 85 to 87
22 | COc1ccc(C(=O)CC(O)C(=O)O)cc1OC (centres undefined) | 106 to 108
23 | CC(C)c1cc(C(C)C)cc(N(Cc2cccc(NC(=N)c3cccs3)c2)C(=O)CCc2cc(C(C)C)c(O)c(C(C)C)c2)c1 | 144 to 145
24 | Oc1cc2c(cc1Cl)OCO2 | 95
25 | N#Cc1c(Cl)c(F)cc2c(=O)c(C(=O)O)cn(C3CC3)c12 | 281 to 282
26 | CCCCc1ccc(N)nc1 | 30 to 33
27 | CC(=O)c1cnc2onc(C)c2c1O | 162
28 | Cc1nc(-c2ccc(Cl)cc2)oc1CO | 135
29 | O=c1c(Cl)c(Cl)cnn1[C@@H]1C[C@H](O)[C@@H](O)[C@H]1O (racemic) | 163
30 | NNC(=O)NN=Cc1ccc(Cl)cc1 | 188 to 189
31 | NC(=O)Cc1cnc(Nc2n[nH]c3ccc(-c4ncccc4Cl)cc23)s1 | > 230
32 | OCc1cc2cc(Br)ccc2[nH]1 | 111 to 112
33 | O=S(=O)(NCCCl)c1ccccc1 | 58 to 62
34 | CCCCCCCCCCC1CCCC1C(=O)Nc1c(OC)ccc2ncccc12 (centres undefined) | 57 to 58
35 | CC(C)(C)c1cc(Nc2cccc(Cl)c2)cc(C(C)(C)C)c1O | 110 to 111
36 | O=C1C2CCCN2S(=O)(=O)N1CSc1ccccc1 (centres undefined) | 90.5 to 91.5
37 | Clc1cc2c(oc3c(Cl)c(Br)c(Cl)c(Br)c32)c(Br)c1Br | 288 to 290
38 | Cn1nnnc1SCCCC(=O)c1ccccn1 | 73 to 75
39 | Nc1nc(-c2cc(Cl)ccc2Cl)nc(N(CCO)CCO)n1 | 199 to 200
40 | CCCCCN1Cc2cccc(S(N)(=O)=O)c2S1(=O)=O | 156 to 160

Row | Structure (SMILES) | melting point [°C]
41 | CCCCC[C@H]1CC[C@H](c2ccc(C#Cc3ccc(OC(F)F)cc3)cc2)CC1 | 62
42 | Cc1nc2c(s1)CC(=O)CC2 | 95 to 96
43 | O=C(NC1N=C(c2ccccc2F)c2ccccc2NC1=O)c1ccc(C(F)(F)F)cc1 (racemic) | 209 to 211
44 | C=CCNc1cccnc1S(N)(=O)=O | 134 to 135
45 | CCCP(=O)(O)CC(=O)CNCc1ccccc1 | 155 to 157
46 | O=[N+]([O-])c1c(F)cc(Cl)c2nc(Cl)sc12 | 110 to 112
47 | CCOP(=O)(CS(=O)(=O)Oc1ccccc1)OCC | 50.5 to 51.5
48 | CC(C=Cc1c(C)cc(C)c(C)c1C)=CC=CC(C)=CC(=O)O | 201 to 202
49 | CCOC(=O)c1cnc(N2CCC[C@H]2CO)nc1NCc1ccc(OC)c(Cl)c1 | 88 to 90
50 | COCCCS(=O)(=O)NC(=O)/C=C/c1ccc(OC(C)C)cc1Oc1ncc(C(F)(F)F)cc1Cl | 130
51 | CC1c2cc(C(C)(C)C)cc(C(C)(C)C)c2O[PH](=O)Oc2c1cc(C(C)(C)C)cc2C(C)(C)C (centres undefined) | 209
52 | CCCC1=C(C(=O)OCC)C(c2cc(OC)ccc2OC)c2c[nH]nc2N1 (centres undefined) | 169 to 170
53 | CCN(CC)C(=O)n1ccc(Sc2c(C)cccc2Cl)n1 | 57 to 58
54 | CN(C)C=NS(=O)(=O)c1cc(C(=O)c2cc3c(c(Cl)c2Cl)OC(CO)C3)ccc1Cl (centres undefined) | 180 to 182
55 | O=c1[nH]c(=O)n(C2CC(F)C(CO)O2)cc1C(I)=CI (centres undefined) | 112
56 | O=C1NC(=O)[C@@]2(C[C@@H](C(=O)NCCN3CCN(CC=Cc4ccccc4)CC3)Oc3ccc(F)cc32)N1 | 133 to 135
57 | C=CCN1CCC[C@H]1C(N)=O | 79 to 81
58 | CCONS(=O)(=O)c1ccc(C)cc1 | 94 to 95
59 | CCOC(=O)C(NO)NC(C)=O (centres undefined) | 119 to 121

More lines, now with the values ahead:

Row | melting point [°C] | Structure (SMILES)
60 | 162 to 165 | Cc1c(Nc2c(C#N)cncc2-c2cc3cc(CN4CCN(C)CC4)ccc3o2)ccc2[nH]ccc12
61 | 188 to 190 | Cc1ccc2oc(=O)c(C(=O)Oc3cccc4cnccc34)cc2c1
62 | 162 to 164 | Cc1ccc(-c2cc(N3CCCC3)c(C#N)c3c2-c2ccccc2C3=O)cc1
63 | 172 | O=C1C(O)=C([N+](=O)[O-])C(=O)c2ccc(Br)cc21
64 | 93 | CNC(=O)C(=NOC)c1c(F)cccc1COc1ccccc1C
65 | 169 to 170 | O=C(O)COc1ccc(SCc2ccc(OC3CCc4cc(Cl)ccc43)cc2)c2c1CCC2 (centres undefined)
66 | 171 | O=c1c2ccccc2nnn1CCN1CCC(c2c[nH]c3ccccc23)CC1
67 | 169 to 171 | CC1CCC(n2ncc(-c3ccc(S(C)(=O)=O)cc3)c(-c3ccc(F)cc3)c2=O)C1 (centres undefined)
68 | 100 to 102 | O=C(CCc1ccccc1)c1cccnc1Nc1ccc(F)cc1
69 | 168 to 174 | N#Cc1ccccc1-c1cc(-c2cnc3nc(C(F)(F)F)cnn23)ccc1F
70 | 195 to 196 | COc1ccccc1-c1ccc(C(=O)N2Cc3ccc(C(=O)NC(CO)c4ccccc4)n3Cc3ccccc32)cc1 (centres undefined)
71 | 300 | N=C(O)c1cc(C(O)=Nc2ccc(O)cc2)c(C(=O)O)cc1C(=O)O
72 | 157 to 175 | COc1ccc(C(=O)c2cccc(N)c2)cc1OC
73 | > 220 | O=[N+]([O-])c1cccc(-c2cnc3[nH]c4ccccc4c3c2)c1
74 | 128 to 130 | CNc1ccc(C(=N)NC(=O)OCc2ccccc2)c(F)c1
75 | 235 to 236 | CC(C(=O)O)=C1c2ccccc2C=Cc2ccccc21
76 | 142 | CC1CCCCN1c1ccc([N+](=O)[O-])cc1C(=O)c1ccc(Cl)cc1 (centres undefined)
77 | 314 to 316 | CC1(C)CC(=O)Nc2cc(-c3nc4ccccc4[nH]3)ccc21
78 | 170 to 171 | CSc1noc(-c2ccc(OCCOc3ccc([N+](=O)[O-])cc3)cc2)c1C#N
79 | 180 to 183 | CCCn1cc(-c2nc(C#N)c(N)nc2-c2ccccc2)ccc1=O
80 | 161 to 162 | N#Cc1cc([N+](=O)[O-])ccc1OCc1ccc2ccccc2n1
81 | 120 to 121 | Nc1ccc(Cl)cc1C(O)c1ccccc1OCc1ccccc1 (centres undefined)
82 | 185 to 187 | CC1(C)C(=O)Nc2ccccc2C1(O)c1ccccc1 (centres undefined)

Row | melting point [°C] | Structure (SMILES)
83 | 96 to 98 | Cc1ccc(-c2nc(Oc3ccccc3)nc(-c3ccc(C)cc3C)n2)c(C)c1
84 | > 230 | COCc1cc(N)n2nc(SC)c(S(=O)(=O)c3ccccc3)c2n1
85 | 124 to 126 | O=c1n(CCO)c2ccccc2n1-c1ccc(F)cc1
86 | 70 to 73 | Fc1ccc2[nH]cc(CCCNCCOc3cccc4[nH]ccc34)c2c1
87 | 96 | COc1ccc(-c2cn3ccccc3n2)cc1OC
88 | 254 to 256 | CCCOc1ccc([N+](=O)[O-])cc1C1=NC(=O)C2=NC=NC2=N1
89 | 148 to 150 | C=CCn1c(-c2cccc(Cl)c2[N+](=O)[O-])nc2ccccc21
90 | 192 to 196 | CCCCN=C(O)c1cc([N+](=O)[O-])cc(Sc2ccccc2C(=O)O)c1C(=O)O
91 | 61 to 62 | O=C(Cc1ccccn1)Nc1ccc(CCCc2ccccc2OCc2ccccc2)cc1
92 | 140 to 142 | CC(=O)Nc1c(C(=O)c2ccccc2C)[nH]c2cc(Cl)ccc12
93 | 120 to 123 | CSc1nccc(-c2cc(C)ccc2N)n1
94 | 22 to 24 | O=C(C[N+](=O)[O-])OCCSc1ccccc1
95 | 196 to 198 | CC1(C)OC[C@H](CCOc2ccc(-c3nc4c5ccccc5c5ccccc5c4[nH]3)cc2)O1
96 | 156 to 157 | CCOC(=O)NN1CCc2ccccc2C(Oc2ccc(C(F)(F)F)cc2)C1 (centres undefined)
97 | 200 to 201 | COc1ccc(S(=O)(=O)N2CCc3cccc(-c4ccc(C=CC(=O)NO)cc4)c32)cc1
98 | 144 to 148 | C=C(C)COc1ccc(OC)cc1-c1nc2ccccc2[nH]1
99 | 280 | Nc1cc(-c2noc(-c3cnc4ccc(-c5ccc(C(F)(F)F)cc5)cn34)n2)ccn1
100 | 217 to 220 | CNc1nc2ccccc2n(-c2ccc(Cl)cc2)c1=O
101 | > 300 | O=C(O)C(=O)CC(=O)c1cn(Cc2ccc3ccccc3n2)c2ccccc2c1=O
102 | 137 to 139 | C#CCCN1C(=O)c2ccccc2C1=O
103 | 204 to 205 | Cc1cc(-c2nc3c(F)c(F)ccc3s2)ccc1N
104 | > 204 | Cc1nc(C(N)=O)c([N+](=O)[O-])n1-c1ccc(Cl)c(Cl)c1
